Where “and” joins values, the source holds several entries; their conditions need not be identical. Equal values may be shown once.
Assay: Plasma levels of eprinomectin in cattle after topical pour-on administration (HPLC with fluorescence detection)
Details: for Plasma concentration of eprinomectin: 0.5 mg/kg bodyweight, individual animals
Procedure: Twenty beef cattle of mixed gender and aged approximately between 10-20 months at the time of selection were used to determine the levels of eprinomectin in plasma following topical administration of the composition set forth in Table 1 below at a dose rate of 0.5mg/kg of eprinomectin.
The composition was administered along the midline of the back in a narrow strip between the withers and the tailhead using 60 ml syringes graduated to 1 ml. […] Blood samples were collected from each animal by venipuncture from the jugular vein using suitably labelled 9ml heparinised vacutainers. Following collection, samples were placed on ice protected from light under black cover prior to centrifugation. After centrifugation at 4500 revolutions per minute (RPM) for 5 minutes, the plasma was subsampled into 3 amber cryovials (-1ml plasma/cryovial). Plasma samples were stored at <-20°C until assayed. All samples were assayed for the determination of eprinomectin content, measured as eprinomectin B 1 a (hereafter referred to as eprinomectin) by HPLC.

[1] = bovine, in vivo, topical or ocular, 0.5 mg/kg

CC[C@H](C)[C@H]1O[C@]2(C=C[C@@H]1C)C[C@@H]1C[C@@H](C/C=C(\C)[C@@H](O[C@H]3C[C@H](OC)[C@@H](O[C@H]4C[C@H](OC)[C@H](NC(C)=O)[C@H](C)O4)[C@H](C)O3)[C@@H](C)/C=C/C=C3\CO[C@@H]4[C@H](O)C(C)=C[C@@H](C(=O)O1)[C@]34O)O2 [eprinomectin]
AUC [1]: 7840 ± 2700 ng·h/mL | Cmax [1]: 45.5 ± 18.4 ng/mL | Tmax [1]: 96 h | concentration at 24 h (bovine, in vivo, topical or ocular, 0.5 mg/kg, mean plasma concentrations ± SD, cattle, topical, 24 hours, mean of all animals): 14.3 ± 5.09 ng/mL | concentration at 240 h (bovine, in vivo, topical or ocular, 0.5 mg/kg, mean plasma concentrations, cattle, topical, 240 hours post administration, mean ± SD): 15 ± 6.69 ng/mL | concentration at 408 h (bovine, in vivo, topical or ocular, 0.5 mg/kg, mean plasma concentrations, cattle, topical, 408 hours, mean ± SD): 2.9 ± 1.15 ng/mL | Plasma concentration of eprinomectin (cattle, topical, time point 0 hrs (pre-treatment)): <1.00 ng/mL | Plasma concentration of eprinomectin (cattle, topical, time point 24 hrs, 0.5 mg/kg, 1440 min): 17.6 ng/mL and 16.9 ng/mL and 20.2 ng/mL and 10.2 ng/mL and 14.6 ng/mL and 6.61 ng/mL and 5.98 ng/mL | Plasma concentration of eprinomectin (cattle, topical, time point 48 hrs, 0.5 mg/kg, 2880 min): 24.7 ng/mL and 36.7 ng/mL and 27.7 ng/mL and 23.5 ng/mL and 26.7 ng/mL and 12.7 ng/mL and 8.29 ng/mL | Plasma concentration of eprinomectin (cattle, topical, time point 72 hrs, 0.5 mg/kg, 4320 min): 30.3 ng/mL and 49.8 ng/mL and 30.1 ng/mL and 39.1 ng/mL and 36.9 ng/mL and 17.4 ng/mL and 13.5 ng/mL | Plasma concentration of eprinomectin (cattle, topical, time point 96 hrs, 0.5 mg/kg, 5760 min): 32.2 ng/mL and 56.9 ng/mL and 36.1 ng/mL and 38.5 ng/mL and 45.3 ng/mL and 19.9 ng/mL | Plasma concentration of eprinomectin (cattle, topical, time point 120 hrs, 0.5 mg/kg, 7200 min): 24.8 ng/mL and 76.5 ng/mL and 27.0 ng/mL and 33.8 ng/mL and 44.7 ng/mL and 25.2 ng/mL | Plasma concentration of eprinomectin (cattle, topical, time point 144 hrs, 0.5 mg/kg, 8640 min): 20.5 ng/mL and 71.7 ng/mL and 24.5 ng/mL and 40.6 ng/mL and 44.7 ng/mL and 28.3 ng/mL | Plasma concentration of eprinomectin (cattle, topical, time point 192 hrs, 0.5 mg/kg, 11520 min): 10.8 ng/mL and 44.1 ng/mL and 15.8 ng/mL and 31.1 ng/mL and 38.1 ng/mL and 21.6 ng/mL | Plasma concentration of eprinomectin (cattle, topical, time point 216 hrs, 0.5 mg/kg, 12960 min): 9.41 ng/mL and 31.1 ng/mL and 13.4 ng/mL and 31.7 ng/mL and 31.2 ng/mL and 16.8 ng/mL and 14.4 ng/mL | Plasma concentration of eprinomectin (cattle, topical, time point 240 hrs, 0.5 mg/kg, 14400 min): 7.12 ng/mL and 21.7 ng/mL and 10.3 ng/mL and 29.2 ng/mL and 24.3 ng/mL and 13.3 ng/mL and 11.2 ng/mL | Plasma concentration of eprinomectin (cattle, topical, time point 312 hrs, 0.5 mg/kg, 18720 min): 4.14 ng/mL and 10.7 ng/mL and 4.53 ng/mL and 14.5 ng/mL and 10.3 ng/mL and 8.49 ng/mL and 3.76 ng/mL | Plasma concentration of eprinomectin (cattle, topical, time point 336 hrs, 0.5 mg/kg, 20160 min): 2.67 ng/mL and 6.98 ng/mL and 3.27 ng/mL and 10.8 ng/mL and 8.74 ng/mL and 7.94 ng/mL and 3.94 ng/mL | Plasma concentration of eprinomectin (cattle, topical, time point 360 hrs, 0.5 mg/kg, 21600 min): 1.90 ng/mL and 5.46 ng/mL and 2.21 ng/mL and 8.23 ng/mL and 7.19 ng/mL and 5.54 ng/mL and 3.37 ng/mL | Plasma concentration of eprinomectin (cattle, topical, time point 408 hrs, 0.5 mg/kg, 24480 min): 1.45 ng/mL and 2.79 ng/mL and 1.28 ng/mL and 4.89 ng/mL and 4.57 ng/mL and 4.06 ng/mL and 2.13 ng/mL

Source: patent EP2844225B1, “AVERMECTIN POUR-ON FORMULATION WITH REDUCED WITHDRAWAL TIME” (Norbrook Laboratories Limited, priority 2012, dated 2013)
